# Reference: BindingDB's records for patent US20240067631 (Cytokinetics, 2024)
# Target: Nicotinamide phosphoribosyltransferase (Homo sapiens, UniProt P43490)
# Experiment: NMN Fluorescence Biochemical Assay
# Method: Human Recombinant Enzyme Assay: Compounds described herein were assayed for their ability to stimulate the synthesis of nicotinamide mononucleotide (NMN) by the enzyme NAMPT. The human recombinant enzyme assay measures the activation of the enzyme activity by compounds using recombinant enzyme and substrates in a buffered cell-free system. The assay conditions closely mimic cellular environments. Dose responses were measured using an assay to detect the formation of nicotinamide mono-nucleotide. All experiments were performed in the 384-well format. Generally, 0.5 μL of DMSO containing varying concentrations of the test compound was mixed with 10 μL of the enzyme reagent solution. Enzyme reactions were initiated with the addition of 10 μL of a solution containing the substrates. The final assay conditions were as follows: 6 nM human NAMPT, 2.5 mM ATP, […] in 50 mM HEPES, pH 7.2, 1 mM DTT, 1 mM CHAPS 50 mM NaCl, 100 mM MgCl2. Following an incubation of 60 min at ambient temperature, 10 μL of 20% acetophenone in DMSO was added, followed by 10 μL of 2 M KOH and 40 μL of formic acid. The plates were read for fluorescence (Excitation/Emission=355 nm/460 nm) using an EnVision plate reader after 40 mins of incubation at ambient temperature. […]
# Nicotinamide phosphoribosyltransferase, sequence (P43490 whole entry): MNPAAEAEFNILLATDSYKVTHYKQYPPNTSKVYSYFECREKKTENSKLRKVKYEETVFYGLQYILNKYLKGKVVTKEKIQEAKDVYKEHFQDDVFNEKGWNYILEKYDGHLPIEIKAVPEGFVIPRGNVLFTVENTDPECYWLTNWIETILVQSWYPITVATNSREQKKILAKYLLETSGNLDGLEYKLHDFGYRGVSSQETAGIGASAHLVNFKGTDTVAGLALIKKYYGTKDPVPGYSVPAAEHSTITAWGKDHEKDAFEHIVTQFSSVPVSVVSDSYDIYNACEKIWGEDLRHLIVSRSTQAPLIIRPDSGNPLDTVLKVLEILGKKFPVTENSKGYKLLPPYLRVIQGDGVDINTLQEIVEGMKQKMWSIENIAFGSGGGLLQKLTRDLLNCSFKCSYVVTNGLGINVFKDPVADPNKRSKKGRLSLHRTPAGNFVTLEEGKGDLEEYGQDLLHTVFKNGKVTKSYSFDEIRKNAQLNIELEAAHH
row,EC50,SMILES
1,3.52 µM,"Cc1nc(C(=O)N2CCN(Cc3ccccc3)C(=O)C2)nc(NCCc2cn[nH]c2)c1C [US20240067631, Compound 45]"
2,4.09 µM,"Cc1ccc([C@@H](C)NC(=O)c2nc(C)c(C)c(NCCc3cn[nH]c3)n2)o1 [US20240067631, Compound 101]"
